{
  "source": "patent US5541187A",
  "about": "“6-heterocycyclyl pyrazolo[3,4-d]pyrimidin-4-ones and compositions and method of use thereof” (Sterling Winthrop Inc., priority 1993, dated 1996)",
  "key": {"[1]": {"tested_on": "Spontaneously hypertensive rats", "experiment": "Procedure 2: in vivo reversal of nitroglycerin tolerance, mean arterial pressure", "set-up": "species or system rat (spontaneously hypertensive rats)", "settings": "nitroglycerin 10 μg/kg i.v.", "method": "Spontaneously hypertensive rats (16-19 weeks of age) were made nitroglycerin tolerant by injecting […] nitroglycerin s.c., 3-times/day for 3 days. While conscious and freely moving, the decrease in mean arterial pressure (MAP) in response to a challenge dose of nitroglycerin (10 μg/kg, i.v. bolus) was utilized to confirm tolerance."}, "[2]": {"tested_on": "aortic rings (aortic smooth muscle strips)", "experiment": "Procedure 1: in vitro reversal of nitroglycerin tolerance, relaxation of aortic rings", "assay_type": "cell-based, Male Sprague-Dawley rats", "settings": "Rattus norvegicus, n=8, mean ±S.E.M.", "method": "Male Sprague-Dawley rats (250-350 g body weight) were deeply anesthetized with pentobarbital (50 mg/kg) and then euthanized by exsanguination. The thoracic and abdominal cavities were immediately opened and the aorta was removed. In order to remove the influence of endogenous endothelial relaxing factor (EDRF), the entire length of the aorta was functionally denuded of the endothelial layer by gently scraping the luminal surface with a solid polyethylene catheter. The effectiveness of this procedure was tested in each preparation at the end of the experiment by measuring the vasorelaxant response to 1 μM carbachol, a stimulator of EDRF release. […] Maximal change in contractile tension over a series of nine consecutive 10 minute intervals was recorded and expressed as percent relaxation relative to post pre-treatment, phenylephrine-induced tension. Mean EC50 values were calculated from percent relaxation of individual tissues using a statistical program according to Tallarida and Murray, (Manual of Pharmacologic Calculations with Computer Programs, Springer-Verlag, N.Y. 1987) and are expressed as mean ±S.E.M."}},
  "data": [
    {"smiles": "O=[N+]([O-])OCC(CO[N+](=O)[O-])O[N+](=O)[O-]", "note": "[nitroglycerin, reference compound]", "values": [
      {"measurement": "change in MAP in response to nitroglycerin injection", "setting": "[1]; non-tolerant rats (n=6)", "result": -19, "unit": "mmHg"},
      {"measurement": "change in MAP in response to nitroglycerin injection", "setting": "[1]; tolerant rats (n=11)", "result": -11, "unit": "mmHg"},
      {"measurement": "EC50", "setting": "[2]; 1 h, tolerant strips, pre-exposed to 550 μM nitroglycerin for 60 minutes, p <0.01", "result": "1550 ± 637", "unit": "nM"},
      {"measurement": "EC50", "setting": "[2]; vehicle treated, control strips", "result": "77 ± 16", "unit": "nM"}
    ]}
  ]
}
